Data as given in patent US8703114B2, “Conjugate of a polymer, an anti-angiogenesis agent and a targeting moiety, and uses thereof in the treatment of bone related angiogenesis conditions” (priority 2008, dated 2014).
Read-outs that look alike come from different tables or passages of the source.

Legend:
[1] = tested on: HUVEC; assay: HUVEC cell proliferation assay; conditions: for IC30 of HUVEC proliferation / IC70 of HUVEC proliferation: single treatment
Method: HUVEC were plated at 10,000 cells/well onto 24-well culture plates in EBM-2 supplemented with 5% FBS and incubated for 24 hours (37° C.; 5% CO2). Medium was replaced with 2.5% endothelial cell basal medium-2 (EBM-2) supplemented with 1% Endothelial cell growth supplement (ECGS). Human osteosarcoma Saos-2 or MG-63-Ras cells were plated at 2500 cells/well in DMEM supplemented with 5 FBS and incubated for 24 hours (37° C.; 5% CO2). The medium was then replaced with DMEM supplemented with 10% FBS. Cells were exposed to ALN, TNP-470, and HPMA copolymer-ALN-TNP-470 conjugate or with equivalent concentrations of combinations of free ALN and TNP-470 at serial dilutions. HUVEC were also incubated with or without 1 μM of cathepsin-K inhibitor III. Control cells were grown in the presence or absence of growth factors. HUVEC or Saos-2 viable cells were counted by a Z1 Coulter® Particle Counter (Beckman Coulter™) or by XTT reagent respectively after 72 hours of incubation.
IC50 represents the concentration of a drug that is required for 50% inhibition in vitro. The IC30, 50, 70 values of treatment with ALN, TNP-470 and their respective combinations from HUVEC proliferation assay were collected. IC30, 50, 70 values of TNP-470 and ALN were marked on X, Y axis respectively and a line which represents additive effect was drawn between each inhibitory concentration (IC). The combination index (CI) of each treatment was calculated according to the classic isobologram equation CI=[(D)1/(Dx)1]+[(D)2/(Dx)2] as previously described [Chou T. C. Pharmocol Rev 2006; 58:621-681]. Area on the right side of each IC additive line represents antagonist effect while the left side represents synergic effect.

[2] = tested on: Saos-2 human osteosarcoma cells; assay: Saos-2 cell proliferation assay; assay type: cell-based
Method: (§1) Human osteosarcoma Saos-2 or MG-63-Ras cells were plated at 2500 cells/well in DMEM supplemented with 5 FBS and incubated for 24 hours (37° C.; 5% CO2). The medium was then replaced with DMEM supplemented with 10% FBS. Cells were exposed to ALN, TNP-470, and HPMA copolymer-ALN-TNP-470 conjugate or with equivalent concentrations of combinations of free ALN and TNP-470 at serial dilutions. […] Control cells were grown in the presence or absence of growth factors. HUVEC or Saos-2 viable cells were counted by a Z1 Coulter® Particle Counter (Beckman Coulter™) or by XTT reagent respectively after 72 hours of incubation.

[3] = tested on: HUVEC; assay: HUVEC migration assay towards VEGF; assay type: cell-based, human
Method: Cell migration assays were performed using modified 8 μm Boyden chambers coated with 10 μg/ml fibronectin. […] Following incubation, cells were allowed to migrate to the underside of the chamber for 4 hours in the presence or absence of Vascular endothelial growth factor (VEGF) (20 ng/ml) in the lower chamber. Cells were then fixed with ice-cold […] and stained using Hema 3 Stain System. The stained migrated cells were imaged using Nikon TE2000E inverted microscope integrated with Nikon DS5 cooled CCD camera by 10× objective, brightfield illumination. Migrated cells from the captured images per membrane were counted using NIH image software. Migration was normalized to percent migration, with 100% representing VEGF dependent migration of cells which were not incubated with free or HPMA-conjugated ALN and TNP-470.

[4] = tested on: MG-63-Ras human osteosarcoma cells; assay: MG-63-Ras cell proliferation assay; assay type: cell-based
Method: as §1

[5] = Hydroxyapatite binding assay; conditions: PBS pH 7.4
Method: In order to assess the ability of HPMA copolymer-ALN-TNP-470 conjugate to bind to bone mineral, its binding potency to hydroxyapatite (HA) was evaluated. HPMA copolymer-ALN-TNP-470 conjugate was dissolved in phosphate buffered saline (PBS), pH 7.4 (1 mg/ml). The conjugate solution (500 μl) was incubated with hydroxyapatite powder (15 mg), in 500 μl PBS, pH 7.4. HPMA copolymer-Gly-Phe-Leu-Gly was used as control. Incubated samples were centrifuged at 6000 RPM for 3 minutes and a sample from the upper layer (100 μl) was collected at selected time points. FPLC analysis using HighTrap desalting column (Amersham®) was used for detection of unbound conjugate in the samples (FPLC conditions: AKTA™ Purifier®, mobile phase 100% DDW, 2 ml/minute, 215 nm). Hydroxyapatite binding kinetic analysis of the conjugate was performed using the Unicorn® AKTA™ software. Areas under the curve (AUC) were calculated from chromatographs at each time point. AUC of each hydroxyapatite incubated conjugate chromatogram was normalized to percent AUC of conjugate sample in the absence of hydroxyapatite used as control.

[6] = tested on: HUVEC; assay: Capillary-like tube formation assay; assay type: cell-based, human
Method: The surface of 24-well plates was coated with Matrigel® basement membrane (50 μl/well; 10 mg/ml) on ice and was allowed to polymerize at 37° C. for 30 minutes. […] After 8 hours of incubation (37° C.; 5% CO2), wells were imaged using Nikon TE2000E inverted microscope integrated with Nikon DS5 cooled CCD camera by 4× objective, brightfield illumination. […]

[7] = tested on: VEGF-induced extravasation of Evans blue dye; assay: Miles vascular permeability assay; assay type: in vivo, Balb/c mice; conditions: 30 mg/kg TNP-470 equivalents s.c., assay three days later
Method: Balb/c male mice were injected subcutaneously (s.c.) with TNP-470, HPMA copolymer-ALN-TNP-470 conjugate (30 mg/kg TNP-470 equivalents) or saline (n=5 mice/group). Three days later, a modified Miles assay was performed as previously described [Claffey et al. 1996, Cancer Res 56: 172-181; Miles & Miles 1952, J Physiol 118:228-257]. Briefly, Evans blue dye (100 μl of a 1% solution in 0.9% NaCl) was injected into the retro-orbital plexus of the mice. Ten minutes later, 50 μl of human VEGF165 (1 ng/μl) or PBS were injected intradermally into the pre-shaved back skin. Twenty minutes later, the animals were killed, and an area of skin that included the entire injection site was removed. Evans blue dye was extracted from the skin by incubation with formamide for 5 days at room temperature, and the absorbance of the extracted dye was measured at 620 nm. Data is expressed as mean±standard error of the mean (s.e.m.).

[8] = tested on: mCherry-labeled MG-63-Ras human osteosarcoma; assay: Antitumor activity on MG-63-Ras human osteosarcoma in mice; assay type: in vivo, SCID mice; conditions: day 19, 30 mg/kg q.o.d. 3 times s.c.
Method: SCID male were inoculated s.c. with 5×10^5 mCherry-labeled MG-63-Ras human osteosarcoma. Mice bearing 70 mm^3 tumors were injected s.c. with combination of free ALN and TNP-470 (1:1, 30 mg/kg), FITC-labeled HPMA copolymer-ALN-TNP-470 conjugate (30 mg/kg q.o.d.×3 times TNP-470-equivalent dose) or saline (n=5 mice/group). Therapy was initiated at a relatively early state (70 mm^3) in order to imitate a metastatic scenario as well as an early primary osteosarcoma. Tumor progression was monitored by caliper measurement (width×length^2×0.52) and by CRI™ Maestro non-invasive intravital imaging system. At termination, tumors were dissected, weighed and analyzed. Data is expressed as mean±standard error of the mean (s.e.m.).
CRI Maestro™ non-invasive fluorescence imaging system was used to follow tumor progression of mice bearing mCherry-labeled MG-63-Ras human osteosarcoma tumors and for biodistribution studies of FITC-labeled HPMA copolymer-ALN-TNP-470 conjugate. Mice were maintained on a non-fluorescent diet (Harlan) for the whole period of the experiment. Mice were anesthetized using ketamine (100 mg/kg) and xylazine (12 mg/kg), treated with a depilatory cream (Veet®) and placed inside the imaging system. Alternatively, selected organs from mice were dissected and placed inside the imaging system. […]

[9] = tested on: MG-63-Ras human osteosarcoma tumors; assay: Immunohistochemistry of tumors (H & E, CD34 microvessel density); assay type: in vivo, mice
Method: Immunohistochemistry of tumor nodules was performed using 5 μm thick formalin-fixed, paraffin-embedded tissue sections. Paraffin sections were de-paraffinized, rehydrated, and stained by hematoxylin and eosin (H & E). For CD34 staining (an endothelial cell marker), slides were deparaffinized and pre-treated with 10 mM citrate, pH 6.0 for 50 min in a steam pressure cooker (Decloaking Chamber, BioCare Medical, Walnut Creek, Calif.). All further steps were performed at room temperature in a hydrated chamber. Slides were covered with Peroxidase Block (Merck, Germany) for 5 minutes to quench endogenous peroxidase activity, followed by incubation with 10% of rabbit serum in 50 mM Tris-HCl, pH 7.4, for 30 min to block non-specific binding sites. Primary rat anti-murine CD34 antibody (MEC 14.7 1:50 dilution; Abcam, Cambridge, Mass.) was applied in 1% rabbit serum in Tris-HCl, pH 7.4 at room temperature for 1 hour. Slides were washed in 50 mM TrisHCl, pH 7.4 and rabbit anti-rat antibody (1:750 dilution; Vector Laboratories, CA, USA) was applied for 30 minutes, followed by anti-rabbit horseradish peroxidase-conjugated antibody (ABC detection kit, Vector Laboratories, CA, USA). Following further washing, immunoperoxidase staining was developed using a ImmPACT™ DAB diluent kit (Vector Laboratories, CA, USA) per the manufacturer instructions and counterstained with methyl green. Microvessel density (MVD) was calculated as previously described [Weidner et al. 1991, N Engl J Med 324:1-8].

[10] = Homo sapiens, HUVEC, read-out: IC50 of HUVEC proliferation
[11] = equivalent concentration 0.1 nM

What does the source list for `NCCCC(O)(P(=O)(O)O)P(=O)(O)O` [ALN, (4-amino-1-hydroxybutylidene)bisphosphonic acid]?
Dose dependence of inhibition of ECGS-induced HUVEC proliferation [1]: inhibited at a dose dependent manner; IC50 [1, 10]: 50 µM; IC30 of HUVEC proliferation [1]: 10 µM; IC70 of HUVEC proliferation [1]: 90 µM; Dose dependence of inhibition of Saos-2 proliferation [2]: inhibited at a dose dependent manner

With `CO[C@@H]1[C@H](OC(=O)NC(=O)CCl)CC[C@]2(CO2)[C@H]1[C@@]1(C)O[C@@H]1CC=C(C)C` [TNP-470] as the compound, how does the “Inhibition of HUVEC proliferation, free vs conjugated TNP-470” value [1] read?
The value was “inhibited similarly”.

What about the IC50 [1, 10] of the same compound?
Its IC50 is 0.0001 µM.

And the “IC30 of HUVEC proliferation” value [1]?
The value was 2.5e-07 µM.

And the “IC70 of HUVEC proliferation” value [1]?
Its value is 1 µM.

What about the “Inhibition of chemotactic migration response to VEGF” value (from here on “Inhibition … to VEGF”) ([3]; equivalent concentrations of 0.1, 1 and 10 nM) of the same compound?
Its value is “dramatically inhibited”.

Which “Cytotoxic effect on HUVEC at doses higher than” value ([1]; ALN and TNP-470 equivalent concentrations) does the source give for “HPMA-Gly-Gly-Pro-Nle-ALN-TNP-470 [HPMA copolymer-ALN-TNP-470 conjugate]” here?
Its value is greater than 10 nM.

And the “Concentrations inhibiting HUVEC proliferation in the presence of cathepsin K inhibitor III” value ([1]; ALN-equivalent concentrations, 72 hours)?
Its value is “higher than 4 μM”.

And the “Shift of concentration inhibiting HUVEC proliferation in presence vs absence of cathepsin K inhibitor III” value ([1]; higher concentration in presence of inhibitor)?
The value was 4 logs.

What about the IC50 ([1]; read-out: IC50 of ECGS-induced HUVEC proliferation, ALN and TNP-470 equivalent concentrations, 72 hours) of the same compound?
The IC50 was 0.001 µM.

What about the IC50 ([1]; read-out: IC50 of HUVEC proliferation in the presence of cathepsin K inhibitor III, 1 μM cathepsin K inhibitor III) of the same compound?
The IC50 was 4.2 µM.

And the IC50 [2]?
Its IC50 is 30 µM.

And the IC50 [4]?
The IC50 was 10 µM.

And the “Conjugate bound to hydroxyapatite” value ([5]; 2 minutes of incubation)?
Its value is 50%.

And the “Conjugate bound to hydroxyapatite” value ([5]; plateau after 175 minutes of incubation)?
The value was 92%.

And the “Inhibition … to VEGF” value [3, 11]?
Its value is 18%.

What about the “Inhibition … to VEGF” value ([3]; equivalent concentration 1 nM) of the same compound?
The value was 35%.

And the “Inhibition … to VEGF” value ([3]; equivalent concentration 10 nM)?
The value was 61%.

And the “Inhibition of capillary-like tube length vs untreated control” value (“Inhibition … vs untreated control” below) ([6]; equivalent concentration 0.01 nM)?
Its value is 29%.

What about the “Inhibition … vs untreated control” value [6, 11] of the same compound?
The value was 54%.

And the “Inhibition … vs untreated control” value ([6]; equivalent concentration 1 nM)?
The value was 64%.

What about the “Inhibition of VEGF-induced extravasation of Evans blue dye vs vehicle” value [7] of the same compound?
Its value is 92%.

And the Tumor growth inhibition [8]?
Its Tumor growth inhibition is 96%.

And the “Microvessel density (MVD)” value ([9]; CD34 staining)?
Its value is 32±9 microvessels/mm^2.

What about the “Reduction in microvessel density (MVD) vs control” value ([9]; CD34 staining) of the same compound?
The value was 74%.

What about the “Tumor histology (H & E)” value ([9]; mouse, in vivo) of the same compound?
The value was “almost regressed”.
